Test results from US20250154138A1, “Small Molecule IL-17A Modulators” (BeiGene, Ltd., priority 2022, published 2025).

Experiments:
[1] = tested on: IL-17-induced GROα secretion from HT-29 cells; assay: GROα release assay in human colorectal adenocarcinoma epithelial cell (HT-29, ELISA); type: cell-based; conditions: Homo sapiens, HT-29, 48 h, 10 ng/mL IL-17A, highest concentration 10 μM, read-out: Cellular assay HT29 cell/CXCL1 IC50
In short: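 IC50 values come from four-parameter fits of GROα levels, quantified by ELISA (450 nm, standard curve) in supernatants. Compounds, 4-fold serially diluted from 10 μM, were mixed 15 min with IL-17A (10 ng/mL final) before 48 h incubation with HT-29 cells at 37°C.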

[2] = target: human IL-17A / human IL-17RA (Homo sapiens (Human), UniProt Q16552); assay: Human IL-17A biochemical assay (HTRF, blocking of IL-17A binding to IL-17RA); conditions: 0.4 nM IL-17A, 0.3 nM IL-17RA, max compound concentration 10 uM
Sequence of human IL-17A / human IL-17RA (Q16552 24-155): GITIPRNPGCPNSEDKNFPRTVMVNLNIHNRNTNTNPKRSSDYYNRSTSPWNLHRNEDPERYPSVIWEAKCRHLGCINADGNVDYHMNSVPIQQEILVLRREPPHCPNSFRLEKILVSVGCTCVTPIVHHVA
In short: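 In this time-resolved fluorescence format, the cytokine (0.4 nM) is exposed to compound for 3 h before 0.3 nM receptor is added for 1 h, with all incubations at room temperature in HEPES buffer, pH 7.5. The 620/665 nm signal ratio gives percent inhibition, and IC50 is taken from a 4-parameter curve.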

Compound	IC50 [1] [nM]	IC50 [2] [nM]
CNC(=O)C1(N2C[C@@H](C(C)C)NC2=O)Cc2ccc(NC(=O)C(NC(=O)c3ccnn3C)C3C4CC5CC(C4)CC3C5)cc2C1 (stereo partly drawn) [Example 111, N-(1-((1R,3S,5R,7R)-adamantan-2-yl)-2-((2-((R)-4-isopropyl-2-oxoimidazolidin-1-yl)-2-(methylcarbamoyl)-2,3-dihydro-1H-inden-5-yl)amino)-2-oxoethyl)-1-methyl-1H-pyrazole-5-carboxamide]	112	55
CNC(=O)C1(N2C[C@@H](C(C)C)NC2=O)Cc2ccc(NC(=O)C(NC(=O)c3ccnn3C)C3CCC4(CC3)CC4)cc2C1 (stereo partly drawn) [Example 112, N-(2-((2-((R)-4-isopropyl-2-oxoimidazolidin-1-yl)-2-(methylcarbamoyl)-2,3-dihydro-1H-inden-5-yl)amino)-2-oxo-1-(spiro[2.5]octan-6-yl)ethyl)-1-methyl-1H-pyrazole-5-carboxamide]	181	41
CNC(=O)C1(N2CC(C)(C3CC3)CNC2=O)Cc2ccc(NC(=O)[C@@H](NC(=O)c3ccnn3C)C3CCCCC3)cc2C1 (stereo partly drawn) [Example 113, N-((1S)-1-cyclohexyl-2-((2-(5-cyclopropyl-5-methyl-2-oxotetrahydropyrimidin-1(2H)-yl)-2-(methylcarbamoyl)-2,3-dihydro-1H-inden-5-yl)amino)-2-oxoethyl)-1-methyl-1H-pyrazole-5-carboxamide]	457	53
CNC(=O)C1(N2CC3(CC3)CNC2=O)Cc2ccc(NC(=O)[C@@H](NC(=O)c3ccnn3C)C(C3CC3)C3CC3)cc2C1 (stereo partly drawn) [Example 114, N-((2S)-1,1-dicyclopropyl-3-((2-(methylcarbamoyl)-2-(6-oxo-5,7-diazaspiro[2.5]octan-5-yl)-2,3-dihydro-1H-inden-5-yl)amino)-3-oxopropan-2-yl)-1-methyl-1H-pyrazole-5-carboxamide]	57.2	73.9
CNC(=O)C1(N2CC3(CC3)CNC2=O)Cc2ccc(NC(=O)[C@@H](NC(=O)c3ccnn3C(C)C)C(C3CC3)C3CC3)cc2C1 (stereo partly drawn) [Example 115, N-((2S)-1,1-dicyclopropyl-3-((2-(methylcarbamoyl)-2-(6-oxo-5,7-diazaspiro[2.5]octan-5-yl)-2,3-dihydro-1H-inden-5-yl)amino)-3-oxopropan-2-yl)-1-isopropyl-1H-pyrazole-5-carboxamide]	72.4	258
CNC(=O)C1(N2C[C@@H](C(C)C)NC2=O)Cc2ccc(NC(=O)[C@@H](NC(=O)c3nonc3C)C3CCC(F)(F)CC3)cc2C1 (stereo partly drawn) [Example 116, N-((1S)-1-(4,4-difluorocyclohexyl)-2-((2-((R)-4-isopropyl-2-oxoimidazolidin-1-yl)-2-(methylcarbamoyl)-2,3-dihydro-1H-inden-5-yl)amino)-2-oxoethyl)-4-methyl-1,2,5-oxadiazole-3-carboxamide]	415	69.1
CNC(=O)C1(N2C[C@@H](C(C)C)NC2=O)Cc2cc(NC(=O)[C@@H](NC(=O)c3ccnn3C)C3CCCCC3)cnc2C1 (stereo partly drawn) [Example 117, 3-((S)-2-cyclohexyl-2-(1-methyl-1H-pyrazole-5-carboxamido)acetamido)-6-((R)-4-isopropyl-2-oxoimidazolidin-1-yl)-N-methyl-6,7-dihydro-5H-cyclopenta[b]pyridine-6-carboxamide]	1060	925
CNC(=O)C1(N2C[C@@H](C(C)C)NC2=O)Cc2ccc(NC(=O)C(NC(=O)c3ccnn3C)C3CCC(C(C)(C)C)CC3)cc2C1 (stereo partly drawn) [Example 118, N-(1-(4-(tert-butyl)cyclohexyl)-2-((2-((R)-4-isopropyl-2-oxoimidazolidin-1-yl)-2-(methylcarbamoyl)-2,3-dihydro-1H-inden-5-yl)amino)-2-oxoethyl)-1-methyl-1H-pyrazole-5-carboxamide]	581	192
CNC(=O)C1(N2C[C@@H](C(C)C)NC2=O)Cc2cc(F)c(NC(=O)[C@@H](NC(=O)c3ccnn3C)C3CCCCC3)cc2C1 (stereo partly drawn) [Example 119, N-((1S)-1-cyclohexyl-2-((6-fluoro-2-((R)-4-isopropyl-2-oxoimidazolidin-1-yl)-2-(methylcarbamoyl)-2,3-dihydro-1H-inden-5-yl)amino)-2-oxoethyl)-1-methyl-1H-pyrazole-5-carboxamide]	144	73
CNC(=O)C1(N2CC3(CCC3)CNC2=O)Cc2ccc(NC(=O)[C@@H](NC(=O)c3ccnn3C)C(C3CC3)C3CC3)cc2C1 (stereo partly drawn) [Example 120, N-((2S)-1,1-dicyclopropyl-3-((2-(methylcarbamoyl)-2-(7-oxo-6,8-diazaspiro[3.5]nonan-6-yl)-2,3-dihydro-1H-inden-5-yl)amino)-3-oxopropan-2-yl)-1-methyl-1H-pyrazole-5-carboxamide]	72.4	19
CC(C)[C@@H]1CN(C2(C(=O)N[C@H](CO)C3CCCCC3)Cc3ccc(NC(=O)[C@@H](NC(=O)c4ccnn4C)C4CCCCC4)cc3C2)C(=O)N1 (stereo partly drawn) [Example 121, N-((1S)-1-cyclohexyl-2-((2-(((S)-1-cyclohexyl-2-hydroxyethyl)carbamoyl)-2-((R)-4-isopropyl-2-oxoimidazolidin-1-yl)-2,3-dihydro-1H-inden-5-yl)amino)-2-oxoethyl)-1-methyl-1H-pyrazole-5-carboxamide]	32.3	16
CC(C)[C@@H]1CN(C2(C(=O)N[C@@H](CO)C3CCCCC3)Cc3ccc(NC(=O)[C@@H](NC(=O)c4ccnn4C)C4CCCCC4)cc3C2)C(=O)N1 (stereo partly drawn) [Example 122, N-((1S)-1-cyclohexyl-2-((2-(((R)-1-cyclohexyl-2-hydroxyethyl)carbamoyl)-2-((R)-4-isopropyl-2-oxoimidazolidin-1-yl)-2,3-dihydro-1H-inden-5-yl)amino)-2-oxoethyl)-1-methyl-1H-pyrazole-5-carboxamide]	13	10
CNC(=O)C1(N2C[C@@H](C(C)C)NC2=O)CCc2cc3[nH]c([C@@H](NC(=O)c4ccnn4C)C4CCCCC4)nc3cc2C1 (stereo partly drawn) [Example 123, 2-((S)-cyclohexyl(1-methyl-1H-pyrazole-5-carboxamido)methyl)-6-((R)-4-isopropyl-2-oxoimidazolidin-1-yl)-N-methyl-5,6,7,8-tetrahydro-1H-naphtho[2,3-d]imidazole-6-carboxamide]	61.6	441
CC(C)CNC(=O)C1(N2C[C@@H](C(C)C)NC2=O)Cc2ccc(NC(=O)[C@@H](NC(=O)c3ccnn3C)C3CCCCC3)cc2C1 (stereo partly drawn) [Example 124, N-((1S)-1-cyclohexyl-2-((2-(isobutylcarbamoyl)-2-((R)-4-isopropyl-2-oxoimidazolidin-1-yl)-2,3-dihydro-1H-inden-5-yl)amino)-2-oxoethyl)-1-methyl-1H-pyrazole-5-carboxamide]	32.5	19
CCC1CCC(C(NC(=O)c2ccnn2C)C(=O)Nc2ccc3c(c2)CC(C(=O)NC)(N2CC4(CCC4)CNC2=O)C3)CC1 (stereo not shown) [Example 125, N-(1-(4-ethylcyclohexyl)-2-((2-(methylcarbamoyl)-2-(7-oxo-6,8-diazaspiro[3.5]nonan-6-yl)-2,3-dihydro-1H-inden-5-yl)amino)-2-oxoethyl)-1-methyl-1H-pyrazole-5-carboxamide]	25.8	5.6
CNC(=O)C1(N2C[C@@H](C(C)C)NC2=O)Cc2ccc(NC(=O)[C@@H](NC(=O)c3ccnn3CCO)C3CCCCC3)cc2C1 (stereo partly drawn) [Example 126, N-((1S)-1-cyclohexyl-2-((2-((R)-4-isopropyl-2-oxoimidazolidin-1-yl)-2-(methylcarbamoyl)-2,3-dihydro-1H-inden-5-yl)amino)-2-oxoethyl)-1-(2-hydroxyethyl)-1H-pyrazole-5-carboxamide]	3960	72
CNC(=O)C1(N2C[C@@H](C(C)C)NC2=O)Cc2ccc(NC(=O)C(NC(=O)c3ccnn3C)C3CCc4ccccc4C3)cc2C1 (stereo partly drawn) [Example 128, N-(2-((2-((R)-4-isopropyl-2-oxoimidazolidin-1-yl)-2-(methylcarbamoyl)-2,3-dihydro-1H-inden-5-yl)amino)-2-oxo-1-(1,2,3,4-tetrahydronaphthalen-2-yl)ethyl)-1-methyl-1H-pyrazole-5-carboxamide]	277	89.8
CNC(=O)C1(N2C[C@@H](C(C)C)NC2=O)Cc2ccc(NC(=O)[C@@H](NC(=O)c3ccnn3C3CC3)C3CCCCC3)cc2C1 (stereo partly drawn) [Example 129, N-((1S)-1-cyclohexyl-2-((2-((R)-4-isopropyl-2-oxoimidazolidin-1-yl)-2-(methylcarbamoyl)-2,3-dihydro-1H-inden-5-yl)amino)-2-oxoethyl)-1-cyclopropyl-1H-pyrazole-5-carboxamide]	119	44
CNC(=O)C1(N2CC3(CC3)CNC2=O)Cc2ccc(NC(=O)[C@@H](NC(=O)c3cc(C#N)cn3C)C3CCCCC3)cc2C1 (stereo partly drawn) [Example 130, 4-cyano-N-((1S)-1-cyclohexyl-2-((2-(methylcarbamoyl)-2-(6-oxo-5,7-diazaspiro[2.5]octan-5-yl)-2,3-dihydro-1H-inden-5-yl)amino)-2-oxoethyl)-1-methyl-1H-pyrrole-2-carboxamide]	59.6	19
CNC(=O)C1(N2CC3(CC3)CNC2=O)Cc2ccc(NC(=O)[C@@H](NC(=O)c3ccc(C#N)n3C)C3CCCCC3)cc2C1 (stereo partly drawn) [Example 131, 5-cyano-N-((1S)-1-cyclohexyl-2-((2-(methylcarbamoyl)-2-(6-oxo-5,7-diazaspiro[2.5]octan-5-yl)-2,3-dihydro-1H-inden-5-yl)amino)-2-oxoethyl)-1-methyl-1H-pyrrole-2-carboxamide]	14.9	5.5
